Source: patent US20250221966A1, “RXFP1 AGONISTS” (BRISTOL-MYERS SQUIBB COMPANY, priority 2021, published 2025)

The compounds below were run against T1, human RXFP1 (Homo sapiens, UniProt Q9HBX9) (assay: RXFP1 cAMP assay (hRXFP1 HEK293 cAMP assay, HTRF)). Conditions: HEK293 cells stably expressing human RXFP1, 30 min at room temperature, read-out: cAMP hRXFP1 HEK293 Assay EC50.
T1 construct: expressed in transfected cells
T1 sequence (Q9HBX9 1-757): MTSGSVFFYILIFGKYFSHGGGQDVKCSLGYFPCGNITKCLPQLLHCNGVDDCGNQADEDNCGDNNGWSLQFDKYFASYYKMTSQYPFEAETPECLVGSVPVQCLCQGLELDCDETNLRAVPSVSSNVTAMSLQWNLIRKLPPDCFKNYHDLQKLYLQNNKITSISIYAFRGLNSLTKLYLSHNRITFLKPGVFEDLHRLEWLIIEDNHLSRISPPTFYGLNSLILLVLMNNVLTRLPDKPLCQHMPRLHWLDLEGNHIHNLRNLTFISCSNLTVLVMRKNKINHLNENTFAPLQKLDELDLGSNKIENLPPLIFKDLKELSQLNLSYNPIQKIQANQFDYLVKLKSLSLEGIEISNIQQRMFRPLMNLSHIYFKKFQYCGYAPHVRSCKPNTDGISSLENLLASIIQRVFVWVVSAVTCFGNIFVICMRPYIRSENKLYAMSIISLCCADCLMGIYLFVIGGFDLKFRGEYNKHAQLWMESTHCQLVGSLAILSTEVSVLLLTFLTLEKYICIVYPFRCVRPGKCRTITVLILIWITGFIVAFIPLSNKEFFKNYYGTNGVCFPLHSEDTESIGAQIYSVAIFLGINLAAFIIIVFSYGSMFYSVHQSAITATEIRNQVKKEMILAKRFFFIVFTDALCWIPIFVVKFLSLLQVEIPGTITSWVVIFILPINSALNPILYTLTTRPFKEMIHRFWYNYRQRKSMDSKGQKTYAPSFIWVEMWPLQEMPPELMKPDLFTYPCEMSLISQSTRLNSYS
Assay type: cell-based
Protocol: RXFP1 Cyclic Adenosine Monophosphate (cAMP) Assays. […] Cells were dissociated and suspended in assay buffer. The assay buffer was HBSS buffer (with calcium and magnesium) containing 20 mM HEPES, 0.05% BSA, and 0.5 mM IBMX. Cells (3000 cells per well, except 1500 cell per well for HEK293 cells stably expressing human RXFP1) were added to 384-well Proxiplates (Perkin-Elmer). Cells were immediately treated with test compounds in DMSO (2% final) at final concentrations in the range of 0.010 nM to 50 μM. Cells were incubated for 30 min at room temperature. The level of intracellular cAMP was determined using the HTRF HiRange cAMP assay reagent kit (Cisbio) according to manufacturer's instructions. Solutions of cryptate conjugated anti-cAMP and d2 fluorophore-labelled cAMP were made in a supplied lysis buffer separately. Upon completion of the reaction, the cells were lysed with equal volume of the d2-cAMP solution and anti-cAMP solution. […] The potency and activity of a compound to […] cAMP production was then determined by fitting to a 4-parametric logistic equation from a plot of cAMP level versus compound concentrations.

Compound	EC50
COc1ccc(-c2ccc(C(=O)N(C)C)cc2F)cc1C(=O)N[C@@H]1C2CCC(/C2=C/c2ccccc2)[C@@H]1C(=O)Nc1ccc(F)c(C(F)(F)F)c1 (stereo partly shown) [compound 195]	29 nM
COc1ccc(-c2cc([C@H](OC(=O)NC3CCC3)C(F)(F)F)ccc2F)cc1C(=O)N[C@@H]1C2CCC(/C2=C/C2CC(F)(F)C2)[C@@H]1C(=O)Nc1ccc(F)c(C(F)(F)F)c1 (stereo partly shown) [compound 359]	2 nM
COc1ccc(-c2cc(C3=NOC(CO)C3)ccc2F)cc1C(=O)N[C@H]1[C@@H](C(=O)Nc2ccc(F)c(C(F)(F)F)c2)[C@H]2CC[C@@H]1/C2=C\C1CC1 (stereo partly shown) [compound 906]	6.8 nM
COc1ccc(-c2cc(C(OC(=O)NC3CCC3)C(F)F)ccc2F)cc1C(=O)N[C@@H]1C2CCC(/C2=C/C2CC2)[C@@H]1C(=O)Nc1ccc(F)c(C(F)(F)F)c1 (stereo partly shown) [compound 231]	1 nM
COc1ccc(-c2ccc(C(=O)O)cc2F)cc1C(=O)N[C@@H]1C2CCC(/C2=C/c2ccccc2)[C@@H]1C(=O)Nc1ccc(F)c(C(F)(F)F)c1 (stereo partly shown) [compound 169]	44 nM
COC(=O)c1c[nH]c2cc(-c3ccc(OC)c(C(=O)N[C@@H]4C5CCC(/C5=C/C(F)(F)F)[C@@H]4C(=O)Nc4ccc(F)c(C(F)(F)F)c4)c3)ccc12 (stereo partly shown) [compound 296]	205 nM
COc1ccc(C2=NOC(CC(C)(C)O)C2)cc1C(=O)N[C@H]1[C@@H](C(=O)Nc2ccc(F)c(C(F)(F)F)c2)[C@H]2CC[C@@H]1/C2=C\C1CC1 (single isomer, unassigned) [compound 499]	11 nM
COc1ccc(C2=NOC3CC(CO)CC23)cc1C(=O)N[C@H]1[C@@H](C(=O)Nc2ccc(F)c(C(F)(F)F)c2)[C@H]2CC[C@@H]1/C2=C\C1CCCC1 (stereo partly shown) [compound 445]	0.5 nM
COc1ccc(-c2cc(C(O)C(=O)O)ccc2F)cc1C(=O)NC1C2CCC(/C2=C/C2CC(F)(F)C2)C1C(=O)Nc1ccc(F)c(C(F)(F)F)c1 (stereo not shown) [compound 353]	11 nM
COc1ccc(-c2cc(C(NC(=O)C3CCOCC3)C(=O)O)ccc2F)cc1C(=O)N[C@H]1[C@@H](C(=O)Nc2ccc(F)c(C(F)(F)F)c2)[C@H]2CC[C@@H]1/C2=C\CC(C)C (stereo partly shown) [compound 941]	1.2 nM
COc1ccc(-c2ccc(N3CCOCC3)c(C(=O)OC(C)(C)C)c2)cc1C(=O)N[C@H]1[C@@H](C(=O)Nc2ccc(F)c(C(F)(F)F)c2)[C@H]2CC[C@@H]1/C2=C\C1CC1 [Example 251, tert-butyl 3′-(((1R,2R,3S,4R,Z)-7-(cyclopropylmethylene)-3-((4-fluoro-3-(trifluoromethyl)phenyl)carbamoyl)bicyclo[2.2.1]heptan-2-yl)carbamoyl)-4′-methoxy-4-morpholino-[1,1′-biphenyl]-3-carboxylate]	36 nM
COc1cc(C)c(C2=NOC3COCC23)cc1C(=O)N[C@H]1[C@@H](C(=O)Nc2ccc(F)c(C(F)(F)F)c2)[C@H]2CC[C@@H]1/C2=C\C1CC1 (single isomer, unassigned) [compound 686]	653 nM
COc1ccc(C2=NOC3COCC23)cc1C(=O)N[C@H]1[C@@H](C(=O)NCC(C)(C)OC)[C@H]2CC[C@@H]1/C2=C\C1CC1 (stereo partly shown) [compound 564]	47.3 nM
COc1ccc(C2=NOC3COCC23)cc1C(=O)N[C@H]1[C@@H](C(=O)NCC2(C)COC2)[C@H]2CC[C@@H]1/C2=C\C1CC1 (stereo partly shown) [compound 675]	485 nM
COc1ccc(-c2cc(C(NC(=O)COc3ccccc3)C(=O)O)ccc2F)cc1C(=O)N[C@@H]1C2CCC(/C2=C/C(F)(F)F)[C@@H]1C(=O)Nc1ccc(F)c(C(F)(F)F)c1 (stereo partly shown) [compound 244]	7 nM
COc1ccc(-c2cc(C(=O)O)ccc2F)cc1C(=O)N[C@@H]1C2CCC(/C2=C/C2CC2)[C@@H]1C(=O)Oc1cccc(-c2nnnn2C)c1 (stereo partly shown) [compound 272]	3830 nM
O=C(N[C@H]1[C@@H](C(=O)Nc2ccc(F)c(C(F)(F)F)c2)[C@H]2CC[C@@H]1/C2=C\C1CC1)c1cc(C2=NOC3COCC23)ccc1OCCC(F)(F)F (stereo partly shown) [compound 780]	1.8 nM
CCOC(=O)c1coc(-c2ccc(OC)c(C(=O)N[C@@H]3C4CCC(C4=C(C)C)[C@@H]3C(=O)Nc3ccc(F)c(C(F)(F)F)c3)c2)n1 (stereo partly shown) [Example 110]	800 nM
CCCOc1c(F)cc(C2=NOC3CC(CO)CC23)cc1C(=O)N[C@H]1[C@@H](C(=O)Nc2ccc(F)c(C(F)(F)F)c2)[C@H]2CC[C@@H]1/C2=C\C1CC1 (stereo partly shown) [compound 782]	3.2 nM

Compound	EC50
COc1ccc(-c2cc(C(=O)O)ccc2F)cc1C(=O)N[C@@H]1C2CCC(/C2=C/C2CC2)[C@@H]1C(=O)N[C@@H](C)c1ccccc1C(F)(F)F (stereo partly shown) [compound 262]	139 nM
COc1ccc(-c2cc([C@H](C)O)on2)cc1C(=O)N[C@H]1[C@@H](C(=O)Nc2ccc(F)c(C(F)(F)F)c2)[C@H]2CC[C@@H]1/C2=C\C1CC1 [compound 465]	3.5 nM
COc1ccc(-c2cc(C(=O)O)ccc2F)cc1C(=O)N[C@@H]1C2CCC(/C2=C/C2CC2)[C@@H]1C(=O)NC1CCCCC1 (stereo partly shown) [compound 203]	322 nM
CC(F)(F)COc1ccc(C2=NOC3COCC23)cc1C(=O)N[C@@H]1C2CCC(/C2=C/C2CC2)[C@@H]1C(=O)Nc1ccc(F)c(C(F)(F)F)c1 (stereo partly shown) [compound 790]	4.9 nM
COc1ccc(C2=NOC3CC(CO)CC23)cc1C(=O)N[C@H]1[C@@H](C(=O)Nc2ccc(F)c(C(F)(F)F)c2)[C@H]2CC[C@@H]1/C2=C\CC1CC(F)(F)C1 (stereo partly shown) [compound 959]	6.1 nM
COc1cccc(/C=C2\C3CCC2[C@H](C(=O)Nc2ccc(F)c(C(F)(F)F)c2)[C@@H]3NC(=O)c2cc(F)c(F)cc2OC)c1 (stereo partly shown) [compound 19]	720 nM
COc1c(F)cc(C2=NOC3CC(O)(C(F)(F)F)CC23)cc1C(=O)N[C@H]1[C@@H](C(=O)Nc2ccc(F)c(C(F)(F)F)c2)[C@H]2CC[C@@H]1/C2=C\C1CC(F)(F)C1 (stereo partly shown) [compound 914]	7.8 nM
COc1ccc(C2=NOC3C[C@H](O)CC23)cc1C(=O)N[C@@H]1C2CCC(/C2=C/C2CC2)[C@@H]1C(=O)Nc1ccc(F)c(C(F)(F)F)c1 (stereo partly shown) [compound 407]	21 nM
COc1ccc(C2=NOC3CC(C)(CO)CC23)cc1C(=O)N[C@H]1[C@@H](C(=O)Nc2ccc(F)c(C(F)(F)F)c2)[C@H]2CC[C@@H]1/C2=C\C1CC1 (stereo partly shown) [compound 735]	1.3 nM
COc1c(F)cc(C2=NOC(CO)C2)cc1C(=O)N[C@H]1[C@@H](C(=O)Nc2ccc(F)c(C(F)(F)F)c2)[C@H]2CC[C@@H]1/C2=C\CC(O)C(F)(F)F (stereo partly shown) [compound 835]	3.9 nM
COC(=O)NC(C(=O)O)c1ccc(F)c(-c2ccc(OC)c(C(=O)N[C@@H]3C4CCC(/C4=C/C(F)(F)F)[C@@H]3C(=O)Nc3ccc(F)c(C(F)(F)F)c3)c2)c1 (stereo partly shown) [compound 186]	25 nM
COc1ccc(N2CCCC2=O)cc1C(=O)N[C@H]1[C@@H](C(=O)Nc2ccc(F)c(C(F)(F)F)c2)[C@H]2CC[C@@H]1/C2=C\C1CC1 [compound 636]	196 nM
COc1ccc(C2=NOC3COCC23)cc1C(=O)N[C@H]1[C@@H](C(=O)NCC2(c3ccccc3)CC2)[C@H]2CC[C@@H]1/C2=C\C1CC1 (stereo partly shown) [compound 572]	66.4 nM
COc1ccc(-c2cc(C(=O)O)ccc2F)cc1C(=O)N[C@@H]1C2CCC(/C2=C/C2CC2)[C@@H]1C(=O)NC1CCc2ccccc2C1 (stereo partly shown) [compound 299]	227 nM
COc1ccc(C2=NOC3COCC23)cc1C(=O)N[C@H]1[C@@H](C(=O)NC2Cc3ccccc3C2)[C@H]2CC[C@@H]1/C2=C\C1CC1 (stereo partly shown) [compound 610]	132 nM
CNC(=O)OC(C(=O)O)c1ccc(F)c(-c2ccc(OC)c(C(=O)N[C@@H]3C4CCC(/C4=C/C(F)(F)F)[C@@H]3C(=O)Nc3ccc(F)c(C(F)(F)F)c3)c2)c1 (stereo partly shown) [compound 180]	5 nM
COc1ccc(C2=NOC(CC(=O)O)C2)cc1C(=O)N[C@@H]1C2CCC(/C2=C/C2CC2)[C@@H]1C(=O)Nc1ccc(F)c(C(F)(F)F)c1 (stereo partly shown) [compound 392]	50 nM
COc1ccc(C2=NOC3CC(CO)CC23)cc1C(=O)N[C@H]1[C@@H](C(=O)Nc2ccc(F)c(C(F)(F)F)c2)[C@H]2CC[C@@H]1/C2=C\c1cnc(C)s1 (stereo partly shown) [compound 804]	4 nM
